Data as given in patent publication US20060046278A1, “Methods and kits for determining metabolic stability of compounds” (Qualyst, Inc., priority 2004, published 2006).

What was measured:
CYP2D6 [1] = molecular target: T1, CYP2D6 (Homo sapiens, UniProt P10635); details: 20 μM substrate; for CL rank order: degree of metabolism by rate of ROS-dependent CL production, reconstituted recombinant CYP2D6, 1 mM NADPH, 37° C.
Procedure: Stock solutions of NADPH were freshly prepared before each experiment in buffer. Test compounds were prepared as 20 mM stock solutions in DMSO and diluted to 2 mM in acetonitrile. […] Reactions were performed at 37° C. in 500 μL deep 96-well blocks. Reactions were incubated for 3 min prior to adding NADPH. Aliquots of the reaction mixture (10 μL) were removed at 0 (immediately after the addition of NADPH), 5,10, 20 and 30 min and quenched with 20 μL of acetonitrile and placed in 96-well polypropylene plates. ROS formation was quantified using a chemiluminescence reaction as described below.

CYP2D6 [2] = molecular target: T1, CYP2D6; details: degree of metabolism by parent compound remaining after 10 min; 5 μM substrate, recombinant CYP2D6 microsomes, 1 mM NADPH, 37° C.
Procedure: Test compounds were prepared as 20 mM stock solutions in DMSO and diluted to 2 mM in acetonitrile. […] Unless otherwise specified, reaction mixtures consisted of 5 μM substrate, 30 pmol/mL recombinant CYP2D6 microsomes (GenTest™) and 1 mM NADPH prepared in buffer to a final volume of 750 μl. Reactions were performed at 37° C. in 1.2 mL marsh tubes. Reactions were incubated for 3 min prior to adding NADPH. Aliquots of the reaction mixture (100 μL) were removed at 0 (immediately after the addition of NADPH), 5, 10, 20 and 30 min and quenched with 200 μL of acetonitrile (containing 2.5 μM terfenadine). Samples were placed at −20° C. for 1 hr and centrifuged using a Thermo IEC Centra GP8R table top centrifuge (3,000 rpm for 10 min). The supernatant fraction was transferred to 500 μL 96-well blocks for LC-MS analysis.
LC-MS analysis was performed using a HPLC system consisting of a Shimadzu LC-10AD pump and Perkin Elmer Series 200 Autosampler coupled to an Applied Biosystems Sciex API 3000 triple-quadrapole mass spectrometer. Test compounds were separated on an Agilent ZORBAX® Bonus-RP column (30×2.1 mm, 3.5 μm particle size) maintained at 30° C. […] The column was equilibrated with 100% buffer A for 2 min between each run. The HPLC eluant was directly introduced into the mass spectrometer equipped with a Turbo Ionspray interface operated at 4500 V in the positive mode. […] Compounds were detected by single ion monitoring using the following parameters: declustering potential, 35 V; focusing potential, 200 V; exit potential, 10 V.

T1 sequence (P10635 whole entry): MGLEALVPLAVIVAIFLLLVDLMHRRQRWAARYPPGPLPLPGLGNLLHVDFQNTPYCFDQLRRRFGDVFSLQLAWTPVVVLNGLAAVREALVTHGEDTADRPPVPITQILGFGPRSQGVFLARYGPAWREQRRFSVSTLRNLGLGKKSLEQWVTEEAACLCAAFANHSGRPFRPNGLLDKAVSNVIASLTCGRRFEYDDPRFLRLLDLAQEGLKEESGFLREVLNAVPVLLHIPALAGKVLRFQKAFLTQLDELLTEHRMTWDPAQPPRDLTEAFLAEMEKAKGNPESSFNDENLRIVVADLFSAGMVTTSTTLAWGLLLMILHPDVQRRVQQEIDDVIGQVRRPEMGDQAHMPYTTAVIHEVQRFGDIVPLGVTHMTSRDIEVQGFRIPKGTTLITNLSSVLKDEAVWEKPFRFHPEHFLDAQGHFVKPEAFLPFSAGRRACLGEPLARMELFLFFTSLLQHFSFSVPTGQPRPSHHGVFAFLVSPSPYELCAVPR

Row | Compound | CL rank order (CYP2D6 [1]) | LC-MS rank order (CYP2D6 [2]) | increase in the rate of CL production over background (no substrate) (CYP2D6 [1]; CYP2D6 reaction, 30 min time course)
1 | COc1ccc([C@@H]2Sc3ccccc3N(CCN(C)C)C(=O)[C@@H]2OC(C)=O)cc1 [diltiazem] | 1 (low (a rate of CL production equal to or below that observed in the absence of substrate (400 Units/min))) | 1 (low (more than 75% of parent compound remaining after 10 min)) | –
2 | NC(=O)N1c2ccccc2C=Cc2ccccc21 [carbamazepine] | 1 (low (a rate of CL production equal to or below that observed in the absence of substrate (400 Units/min))) | 1 (low (more than 75% of parent compound remaining after 10 min)) | –
3 | O=C(CCCN1CCC(O)(c2cccc(C(F)(F)F)c2)CC1)c1ccc(F)cc1 [trifluperidol] | 2 (moderate (a rate of CL production between 400 (background) and 800 CL Units/min)) | 1 (low (more than 75% of parent compound remaining after 10 min)) | –
4 | COc1ccc2c(c1)[C@]13CCCC[C@@H]1[C@H](C2)N(C)CC3 [dextromethorphan] | 2 (moderate (a rate of CL production between 400 (background) and 800 CL Units/min)) | 2 (moderate (between 20 and 75% of parent compound remaining after 10 min)) | approximately two-fold
5 | CCC(C)n1ncn(-c2ccc(N3CCN(c4ccc(OCC5COC(Cn6cncn6)(c6ccc(Cl)cc6Cl)O5)cc4)CC3)cc2)c1=O (stereo not drawn) [itraconazole] | 1 (low (a rate of CL production equal to or below that observed in the absence of substrate (400 Units/min))) | 1 (low (more than 75% of parent compound remaining after 10 min)) | –
6 | C=CCc1ccccc1OCC(O)CNC(C)C (stereo not drawn) [alprenolol] | 3 (high (a rate of CL production above 800 Units/min)) | 3 (high (less than 20% of parent compound remaining after 10 min)) | –
7 | COc1ccc(CCN2CCC(Nc3nc4ccccc4n3Cc3ccc(F)cc3)CC2)cc1 [astemizole] | 2 (moderate (a rate of CL production between 400 (background) and 800 CL Units/min)) | 2 (moderate (between 20 and 75% of parent compound remaining after 10 min)) | –
